Measurements reported in ChEMBL document CHEMBL1649071, “4-[18F]fluoroglutamic acid (BAY 85-8050), a new amino acid radiotracer for PET imaging of tumors: synthesis and in vitro characterization” (J Med Chem, 2011).
One block for each molecule: values may come before it.

Experiments:
Type in all cases: ADME, cell-based
A549 [1] = experiment: Drug uptake in human A549 cells at 250 kBq after 30 mins by gamma-counting; conditions: a549, 0.5 h
HT-29 [2] = experiment: Drug uptake in human HT-29 cells at 250 kBq after 20 mins by gamma-counting in presence of L-glutamic acid; conditions: ht-29, 20 min
A549 [3] = experiment: Drug uptake in human A549 cells at 250 kBq by gamma-counting; conditions: TDE = time-dependent effect
A549 [4] = experiment: Drug uptake in human A549 cells at 250 kBq after 30 mins by gamma-counting in presence of L-glutamic acid; conditions: a549, 0.5 h
HT-29 [5] = experiment: Drug uptake in human HT-29 cells at 250 kBq after 20 mins by gamma-counting; conditions: ht-29, 20 min
A549 [6] = experiment: Drug uptake in human A549 cells at 250 kBq after 20 mins by gamma-counting; conditions: a549, 20 min
HT-29 [7] = experiment: Drug uptake in human HT-29 cells at 250 kBq after 20 mins by gamma-counting in presence of D-glucose; conditions: ht-29, 20 min
A549 [8] = experiment: Drug uptake in human A549 cells at 250 kBq after 30 mins by gamma-counting in presence of D-glucose; conditions: a549, 0.5 h

Drug uptake (A549 [1]): Active
SMILES: N[C@@H](C[C@@H](F)C(=O)O)C(=O)O

Drug uptake (A549 [1]): Active
SMILES: N[C@@H](C[C@H](F)C(=O)O)C(=O)O

Drug uptake (HT-29 [2]): Not Active
Drug uptake (A549 [3]): tde
Drug uptake (A549 [4]): Not Active
Drug uptake (HT-29 [5]): 4%
Drug uptake (A549 [6]): 9.3%
Drug uptake (A549 [1]): 12%
SMILES: N[C@@H](CC([18F])C(=O)O)C(=O)O (stereo not given in full)

Drug uptake (HT-29 [7]): Not Active
Drug uptake (A549 [8]): Not Active
SMILES: OC[C@H]1O[C@@H](O)[C@H]([18F])[C@@H](O)[C@@H]1O [FLUDEOXYGLUCOSE-F18]
